Results on 14 molecules are retold here after patent US4356186A, “Acetic acid derivatives and composition containing the same” (priority 1980, dated 1982).

Data set [1] concerns carrageenin-induced hind paw edema. The experiment in a line: Anti-inflammatory activity (carrageenin-induced hind paw edema in rats). Type of data set: in vivo, Male Wistar rats. As to conditions: for inhibition in vivo at 1 mg/kg / inhibition in vivo at 2 mg/kg / inhibition in vivo at 4 mg/kg / inhibition in vivo at 8 mg/kg / inhibition in vivo at 0.5 mg/kg / inhibition in vivo at 80 mg/kg / inhibition in vivo at 5 mg/kg / inhibition in vivo at 40 mg/kg / inhibition in vivo at 10 mg/kg / inhibition in vivo at 20 mg/kg: Rattus norvegicus, po; for inhibition in vivo at 1 mg/kg: 1 mg/kg p.o.; for inhibition in vivo at 4 mg/kg: 4 mg/kg p.o.; for inhibition in vivo at 8 mg/kg: 8 mg/kg p.o.; for inhibition in vivo at 0.5 mg/kg: 0.5 mg/kg p.o.; for anti-inflammatory activity compared with the known indomethacin / anti-inflammatory activity compared with the known aspirin: in words, from Table 1; for inhibition in vivo at 80 mg/kg: 80 mg/kg p.o.; for inhibition in vivo at 40 mg/kg: 40 mg/kg p.o.; for inhibition in vivo at 10 mg/kg: 10 mg/kg p.o.; for inhibition in vivo at 20 mg/kg: 20 mg/kg p.o. How it is done: Anti-inflammatory activity (carrageenin-induced hind paw edema in rats)
The test was carried out in a similar manner as disclosed in Proc. Soc. Exptl.
Male Wistar rats, weighing 100-300 g, were used. A 1% aqueous carrageenin solution (0.1 ml) was administered subcutaneously into the hind foot pad of rats. Two and three hours after the carrageenin injection, the paw volume was measured and the swelling rate was calculated based on the paw volume before the carrageenin injection. The inhibitory rate was determined as compared with the average swelling rate of the control group to which only vehicle was administered. The test compounds were administered orally one hour before the carrageenin injection.

Data set [2] deals with stomach ulcer. The experiment in a line: Gastrointestinal ulcerogenicity. Type of data set: in vivo, Male Wistar rats. More on the design: key to Average score of stomach ulcer: ulcer score 1 to 4, 4 = most severe ulcer. As to conditions: after 6 hours; for Average score of stomach ulcer: score 1 to 4. How it is done:
Gastrointestinal ulcerogenicity
The test was carried out in a similar manner as disclosed in Arzneim. Forsch., 19, 36 (1969).
Male Wistar rats, weighing 130-180 g, were used. After the rats were fasted for 24 hours, the test compound was orally administered one time. After 6 hours, the rats were killed and the stomach was removed. […] The degree of stomach ulcer was scored from 1 to 4, wherein 4 is the most severe ulcer. In Table 2, there are shown the average score of stomach ulcer in each dose and also the ratio of the number of rats having a score of stomach ulcer of 2 or more to total number of rats used.

Setting [3] is: 2 h, two hours, read-out: Inhibitory rate, two hours after the carrageenin injection.
Where [4] appears, read: 2 h, 2 mg/kg p.o., two hours, read-out: Inhibitory rate, two hours after the carrageenin injection.
The mark [5] stands for this setting: 3 h, three hours, read-out: Inhibitory rate, three hours after the carrageenin injection.
[6] abbreviates: 3 h, 2 mg/kg p.o., three hours, read-out: Inhibitory rate, three hours after the carrageenin injection.
Setting [7] is: 2 h, read-out: Inhibitory rate, two hours after the carrageenin injection.
Setting [8] is: 3 h, read-out: Inhibitory rate, three hours after the carrageenin injection.
Setting [9] is: 2 h, 5 mg/kg p.o., two hours, read-out: Inhibitory rate, two hours after the carrageenin injection.
Where [10] appears, read: 3 h, 5 mg/kg p.o., three hours, read-out: Inhibitory rate, three hours after the carrageenin injection.

Each structure is given as a SMILES string. Where two headings read alike, the source gives them in different places.

Regarding `CC(C(N)=O)c1ccc2c(c1)SCC1CCCCC1C2=O` (single isomer, unassigned) [R, 2-(6,6a,7,8,9,10,10a,11-Octahydro-11-oxodibenzo[b,e]thiepin-3-yl)propionamide-A], the results for the inhibition in vivo at 1 mg/kg in data set [1] (setting [3]) and in data set [1] (setting [5]) were 29.3% and 24.7%, respectively. Moreover, the inhibition in vivo at 2 mg/kg is 30.7% in data set [1] (setting [4]) and 27.6% in data set [1] (setting [6]). The figures for the inhibition in vivo at 4 mg/kg in data set [1] (setting [3]) and in data set [1] (setting [5]) were 38.4% and 37.7%, respectively. Besides, the inhibition in vivo at 8 mg/kg in data set [1] (setting [3]) stood at 43.6%; in data set [1] (setting [5]), 36%. Further, the “Number of rats having a score of stomach ulcer of 2 or more/total number of rats used” value is recorded as 0/3 in data set [2] (8 mg/kg p.o.), 4/6 in data set [2] (16 mg/kg p.o.) and 3/3 in data set [2] (32 mg/kg p.o.). The “Average score of stomach ulcer” value is recorded as 0.00 in data set [2] (8 mg/kg p.o.), 1.67 in data set [2] (16 mg/kg p.o.) and 2.33 in data set [2] (32 mg/kg p.o.).

On to `CC(C(=O)O)c1ccc2c(c1)OCC1CCCCC1C2=O` (stereo not shown) [A, 2-(6,6a,7,8,9,10,10a,11-Octahydro-11-oxodibenz[b,e]oxepin-3-yl)propionicacid], for which the inhibition in vivo at 0.5 mg/kg in data set [1] (setting [3]) turned out to be 23.7%; in data set [1] (setting [5]) it was 17.4%. Besides, the values for the inhibition in vivo at 1 mg/kg in data set [1] (setting [3]) and in data set [1] (setting [5]) were 34.3% and 26.9%, respectively. Also, the results for the inhibition in vivo at 2 mg/kg in data set [1] (setting [4]) and in data set [1] (setting [6]) were 40.5% and 32.6%, respectively. For the same molecule, the “anti-inflammatory activity compared with the known indomethacin” value in data set [1] is listed as “comparable or superior to that of the known indomethacin”.

As for `O=C(O)Cc1ccc2c(c1)OCC1CCCCC1C2=O` (stereo not shown) [B, 6,6a,7,8,9,10,10a,11-Octahydro-11-oxodibenz[b,e]oxepin-3-acetic acid], the values for the inhibition in vivo at 1 mg/kg in data set [1] (setting [3]) and in data set [1] (setting [5]) were 17.8% and 7.8%, respectively. In addition, the “anti-inflammatory activity compared with the known indomethacin” value in data set [1] is reported as “comparable or superior to that of the known indomethacin”.

For `CC(C(=O)O)c1ccc2c(c1)C(=O)C1CCCCC1CO2` (stereo not shown) [C, 2-(6,6a,7,8,9,10,10a,11-Octahydro-11-oxodibenz[b,e]oxepin-2-yl)propionicacid], the figures for the inhibition in vivo at 80 mg/kg in data set [1] (setting [3]) and in data set [1] (setting [5]) were 27.9% and 23.1%, respectively. Also, the “anti-inflammatory activity compared with the known aspirin” value in data set [1] is recorded as “comparable or superior to that of the known aspirin”.

`COc1ccc2c(c1)c(CC(=O)O)c(C)n2C(=O)c1ccc(Cl)cc1` [Compound 1, Indomethacin, reference compound]: the inhibition in vivo at 2 mg/kg is 20.5% in data set [1] (setting [7]) and 19.3% in data set [1] (setting [8]). Further, the values for the inhibition in vivo at 5 mg/kg in data set [1] (setting [7]) and in data set [1] (setting [8]) were 42.4% and 36.3%, respectively. Besides, the results for the “Average score of stomach ulcer” value in data set [2] (4 mg/kg p.o.), in data set [2] (8 mg/kg p.o.) and in data set [2] (16 mg/kg p.o.) were 0.50, 1.78 and 2.56, respectively.

`CC(C(=O)O)c1ccc2c(c1)C(=O)C1CCCCC1CS2` (stereo not shown) [D, 2-(6,6a,7,8,9,10,10a,11-Octahydro-11-oxodibenzo[b,e]thiepin-2-yl)propionicacid]: the inhibition in vivo at 40 mg/kg in data set [1] (setting [3]) came to 28.6%; in data set [1] (setting [5]) it was 24.6%. Further, the inhibition in vivo at 80 mg/kg in data set [1] (setting [3]) was found to be 34%; in data set [1] (setting [5]) it was 27.1%. In data set [1], the “anti-inflammatory activity compared with the known aspirin” value is listed as “comparable or superior to that of the known aspirin”.

For the molecule `O=C(O)Cc1ccc2c(c1)SCC1CCCCC1C2=O` (stereo not shown) [E, 6,6a,7,8,9,10,10a,11-Octahydro-11-oxodibenzo[b,e]thiepin-3-acetic acid], the inhibition in vivo at 2 mg/kg came out at 26.3% in data set [1] (setting [4]) and 16.8% in data set [1] (setting [6]). The “anti-inflammatory activity compared with the known indomethacin” value in data set [1] is listed as “comparable or superior to that of the known indomethacin”.

As for `CC(C(=O)O)c1ccc2c(c1)SCC1CCCCC1C2=O` (stereo not shown) [G, 2-(6,6a,7,8,9,10,10a,11-Octahydro-11-oxodibenzo[b,e]thiepin-3-yl)propionicacid-B], in data set [1] (setting [3]), the inhibition in vivo at 10 mg/kg is 12%, the inhibition in vivo at 20 mg/kg was found to be 18.3%, the inhibition in vivo at 40 mg/kg was 33.2% and the inhibition in vivo at 80 mg/kg amounted to 32.2%. Besides, in data set [1] (setting [5]), the inhibition in vivo at 10 mg/kg is 7.1%, the inhibition in vivo at 20 mg/kg worked out at 11%, the inhibition in vivo at 40 mg/kg was 26.9% and the inhibition in vivo at 80 mg/kg was found to be 30.2%. For the same molecule, the “anti-inflammatory activity compared with the known aspirin” value in data set [1] was “comparable or superior to that of the known aspirin”.

In the case of `C=CCOC(=O)C(C)c1ccc2c(c1)SCC1CCCCC1C2=O` (stereo not shown) [K, Allyl 2-(6,6a,7,8,9,10,10a,11-octahydro-11-oxodibenzo[b,e]thiepin-3-yl)propionate], the inhibition in vivo at 2 mg/kg worked out at 27% in data set [1] (setting [4]) and 22.3% in data set [1] (setting [6]). Also, the values for the inhibition in vivo at 5 mg/kg in data set [1] (setting [9]) and in data set [1] (setting [10]) were 34.3% and 33.5%, respectively.

For the molecule `CC(C(=O)OCC(=O)c1ccccc1)c1ccc2c(c1)SCC1CCCCC1C2=O` (stereo not shown) [M, Phenacyl 2-(6,6a,7,8,9,10,10a,11-octahydro-11-oxodibenzo[b,e]thiepin-3-yl)propionate], the inhibition in vivo at 5 mg/kg in data set [1] (setting [9]) came to 33.2%; in data set [1] (setting [10]) it was 26.6%.

As for `CC(C(=O)OCCOCCO)c1ccc2c(c1)SCC1CCCCC1C2=O` (stereo not shown) [N, 2-(2-Hydroxyethoxy)ethyl 2-(6,6a,7,8,9,10,10a,11-octahydro-11-oxodibenzo[b,e]thiepin-3-yl)propionate], the values for the inhibition in vivo at 2 mg/kg in data set [1] (setting [4]) and in data set [1] (setting [6]) were 15.8% and 13.2%, respectively. In addition, the results for the inhibition in vivo at 5 mg/kg in data set [1] (setting [9]) and in data set [1] (setting [10]) were 43.9% and 28.1%, respectively.

For the molecule `CC(C(=O)OCCN1CCOCC1)c1ccc2c(c1)SCC1CCCCC1C2=O` (stereo not shown) [Q, 2-Morpholinoethyl 2-(6,6a,7,8,9,10,10a,11-octahydro-11-oxodibenzo[b,e]thiepin-3-yl)propionate], the inhibition in vivo at 2 mg/kg in data set [1] (setting [4]) stood at 25.4%; in data set [1] (setting [6]), 22.8%. Besides, the inhibition in vivo at 5 mg/kg in data set [1] (setting [9]) is 28.9%; in data set [1] (setting [10]), 22%.

With `CC(C(=O)NO)c1ccc2c(c1)SCC1CCCCC1C2=O` (stereo not shown) [S, 2-(6,6a,7,8,9,10,10a,11-Octahydro-11-oxodibenzo[b,e]thiepin-3-yl)propionohydroxamic acid], the inhibition in vivo at 2 mg/kg came to 21.9% in data set [1] (setting [4]) and 18.5% in data set [1] (setting [6]). The values for the inhibition in vivo at 5 mg/kg in data set [1] (setting [9]) and in data set [1] (setting [10]) were 31.5% and 29.9%, respectively.

For `CC(C(=O)NCC(=O)O)c1ccc2c(c1)SCC1CCCCC1C2=O` (stereo not shown) [T, N-Carboxymethyl-2-(6,6a,7,8,9,10,10a,11-octahydro-11-oxodibenzo[b,e]thiepin-3-yl)propionamide], the values for the inhibition in vivo at 2 mg/kg in data set [1] (setting [4]) and in data set [1] (setting [6]) were 19.9% and 15%, respectively. The results for the inhibition in vivo at 5 mg/kg in data set [1] (setting [9]) and in data set [1] (setting [10]) were 43.9% and 28.1%, respectively.
